What was measured:
[1] = tested on: spontaneous hypertensive rats; experiment: Anti-hypertensive activity, mean arterial blood pressure of conscious spontaneous hypertensive rats; format: in vivo, rat (adult male spontaneous hypertensive); settings: second identical dose at 24th hour, vehicle controls 166
Protocol: These compounds have been tested pharmacologically and found to have such properties with a desirable wide spread between doses producing lowered blood pressure and toxic symptoms. In determining this effect of these compounds on hypertension, adult male, 16-20 weeks old, spontaneous hypertensive rats from Taconic Farms, Germantown, N.Y., weighing about 300 grams are used. The rats are dosed by gavage with the test compounds at the indicated dose. All doses of drug were suspended in 2% starch (2 ml./kg.). A second identical dose of the test compound is given at the 24th hour. The mean arterial blood pressure (MAP) of the conscious rats is measured directly by femoral artery puncture at the 28th hour.

[2] = tested on: Mouse Skin Phosphodiesterase; experiment: Mouse skin phosphodiesterase (PDE) inhibition test (A); format: biochemical, hairless mice; set-up: key: Active: A compound is considered active if it inhibits more than theophylline, that is, to 50% of control at 1 mM concentration of compound, or to 80% of control of 0.05 mM concentration of compound; settings: mouse epidermal PDE, test compound 10 ug./ml., 30° C. 15 min
[3] = tested on: Monkey Lung Cyclic AMP Phosphodiesterase; experiment: Monkey lung cyclic AMP phosphodiesterase inhibition test (B); format: biochemical, African green monkeys; settings: method: monkey lung PDE, 10^-6 M cyclic AMP, compound usually 1 mM or 0.1 mM, 25° C. 20 min
Protocol: The inhibition of phosphodiesterase is determined by the mouse skin and monkey lung phosphodiesterase (PDE) inhibition tests as follows:
(B) MONKEY LUNG INHIBITION
Preparation of Monkey Lung Cyclic AMP Phosphodiesterase
Lung parenchyma of African green monkeys is homogenized in a Waring blender and centrifuged at 40,000 × gravity for 20 minutes. The supernatant is brought to 70% saturation of ammonium sulfate, centrifuged and the pellet redissolved and dialysed, before aliquoting and storage at -20° C.
Assay of Monkey Lung Phosphodiesterase
Phosphodiesterase is assayed by the method of Thompson and Appleman, ibid. An assay tube contains a 0.4 ml. solution of the following: 45 mM tris-HCl buffer, pH 7.4, […], 0.1 mM dithioerythritol, 10^-6 M cyclic AMP, 0.1 uCi [^3 H]-cyclic AMP, and test compound at the desired concentration (usually 1 mM or 0.1 mM). Compounds not readily soluble in water are dissolved at 40 times the desired concentration in methanol, and diluted 20 times with water. If the compound is not dissolved at this time, it is suspended by sonication before being diluted 1:2 into the assay tube. In this case the activity of the enzyme in the presence of the compound is compared to a solvent control (2.5% methanol), although the solvent alone has negligible effect. The reaction is initiated by addition of enzyme and proceeds at 25° C. for 20 minutes. It is terminated by incubation at 100° C. for 2 minutes. The tubes are cooled to 25° C., 0.8 ug of 5'-nucleotidase (Crotolu adamantus toxin) is added to each and the tubes incubated at 25° C. for 30 minutes. A 1 milliliter suspension of Bio-Rad Labs. AGIX8 (about 0.5 ml. of settled resin) is added, the tubes centrifuged at 900 × gravity for 10 minutes and an aliquot of supernatant removed for scintillation counting. The inhibition by the test compound is calculated as: [formula] where `compound` is the cpm in the presence of compound, `control` is the cpm in the absence of compound, and `blank` is the cpm in the absence of enzyme. […] For this reason, control tubes which contained [^3 H]-AMP instead of [^3 H]-cyclic AMP are run in parallel. A correction of the apparent phosphodiesterase activity is made for the rare compound which inhibited the hydrolysis of AMP.

[4] = Dispersion of aerosol suspension on warming after storage; format: physicochemical; settings: aerosol in dichlorodifluoromethane with sorbitan trioleate
Protocol: The active ingredient and sorbitan trioleate are placed in a beaker and the dichlorodifluoromethane is added at -40° C. whereupon a suspension is formed. The mixture is sonified, that is, treated with a Sonifier, manufactured by the Branson Sonic Power Co. of Danbury, Conn., as model LS-75 at a current input of 9 amperes for 2 minutes. Additional cold dichlorodifluoromethane is added as necessary to keep the volume at 100 ml. The mixture is uniformly dispersed, and has increased stability resulting from the sonification. Each of six 19 ml. stainless steel containers are filled with 15 ml. of the cold mixture, then valves are inserted and sealed in place.

| SMILES | MAP 28th hour ([1]; 100 mg/kg by gavage) [mm Hg] | Mouse Skin Phosphodiesterase (A) [2] | Monkey Lung Phosphodiesterase (B) [3] | also measured |
| --- | --- | --- | --- | --- |
| Cc1nc(-c2ccccc2)n2c(=S)[nH]ncc12 [8-Methyl-6-phenyl-imidazo[1,5-d]-as-triazine-4-(3H)-thione] | 128 | Active |  |  |
| Cc1nc(C)n2c(=S)[nH]ncc12 [6,8-Dimethyl-imidazo[1,5-d]-as-triazine-4-(3H)-thione] | 93 | Active |  |  |
| Cc1nc(C(C)(C)C)n2c(=O)[nH]ncc12 [6-tert-Butyl-8-methyl-imidazo[1,5-d]-as-triazin-4(3H)-one] | 133 | Active | Active |  |
| CCCc1ncc2cn[nH]c(=S)n12 [6-n-Propyl-imidazo[1,5-d]-as-triazine-4(3H)-thione] | 136 | Active | Active |  |
| Cc1ncc2cn[nH]c(=O)n12 [6-Methyl-imidazo[1,5-d]-as-triazin-4(3H)-one] | 120 |  |  |  |
| O=c1[nH]ncc2c(Cl)nc(-c3ccccc3)n12 [8-Chloro-6-phenyl-imidazo[1,5-d]-as-triazin-4(3H)-one] |  | Active | Active |  |
| Cc1ncn2c(=S)[nH]ncc12 [8-Methyl-imidazo[1,5-d]-as-triazine-4-(3H)-thione] |  | Active |  | MAP 28th hour ([1]; 25 mg/kg by gavage): 130 mm Hg |
| Cc1ncn2c(=O)[nH]ncc12 [8-Methyl-imidazo[1,5-d]-as-triazin-4(3H)-one] | 91 | Active |  |  |
| CC(C)c1nc(Cl)c2cn[nH]c(=S)n12 [8-chloro-6-isopropyl-imidazo[1,5-d]-as-triazine-4(3H)-thione] |  |  |  | dispersion after storage [4]: remains dispersed |
| Cc1nc(Cc2ccccc2)n2c(=O)[nH]ncc12 [6-Benzyl-8-methyl-imidazo[1,5-d]-as-triazin-4(3H)-one] |  | Active |  |  |
| CCCOc1ccccc1-c1ncc2cn[nH]c(=O)n12 [6-o-Propoxyphenyl-imidazo[1,5-d]-as-triazine-4(3H)-one] |  | Active |  |  |
| CC(C)(C)c1ncc2cn[nH]c(=O)n12 [6-tert-Butyl-imidazo[1,5-d]-as-triazin-4(3H)-one] | 135 | Active |  |  |
| CCCc1nc(C)c2cn[nH]c(=O)n12 [8-Methyl-6-n-propyl-imidazo[1,5-d]-as-triazin-4(3H)-one] |  |  |  | MAP 28th hour ([1]; 50 mg/kg by gavage): 127 mm Hg |
| CCCc1nc(C)c2cn[nH]c(=S)n12 [8-Methyl-6-n-propyl-imidazolo[1,5-d]-as-triazine-4(3H)-thione] |  | Active | Active |  |
| CCCc1ncc2cn[nH]c(=O)n12 [6-n-Propyl-imidazo[1,5-d]-as-triazin-4(3H)-one] |  | Active |  |  |
| Cc1nc(Cc2ccccc2)n2c(=S)[nH]ncc12 [6-Benzyl-8-methyl-imidazo[1,5-d]-as-triazine-4(3H)-thione] |  | Active | Active |  |
| S=c1[nH]ncc2cncn12 [Imidazo[1,5-d]-as-triazin-4(3H)-thione, Imidazo[1,5-d]-as-triazine-4(3H)-thione] | 123 |  |  |  |
| Cc1nc(-c2ccccc2)n2c(=O)[nH]ncc12 [8-Methyl-6-phenyl-imidazo[1,5-d]-as-triazin-4(3H)-one] | 133 | Active | Active |  |
| Cc1nc(C)n2c(=O)[nH]ncc12 [6,8-Dimethyl-imidazo[1,5-d]-as-triazin-4(3H)-one] |  | Active | Active | MAP 28th hour ([1]; 50 mg/kg by gavage): 70 mm Hg |
| O=c1[nH]ncc2cnc(-c3ccccc3)n12 [6-Phenyl-imidazo[1,5-d]-as-triazin-4(3H)-one] | 117 | Active |  |  |
| COCc1ncc2cn[nH]c(=S)n12 [6-Methoxymethyl-imidazo[1,5-d]-as-triazine-4-(3H)-thione] | 100 |  |  |  |
| O=c1[nH]ncc2cnc(Cc3ccccc3)n12 [6-Benzyl-imidazo[1,5-d]-as-triazin-4(3H)-one] |  | Active |  |  |
| O=c1[nH]ncc2c(Br)nc(-c3ccccc3)n12 [8-Bromo-6-phenyl-imidazo[1,5-d]-as-triazin-4(3H)-one] |  | Active | Active |  |

Source: patent US4107307A, “Imidazo [1,5-d]-as-triazine-4(3H)-ones and thiones” (American Cyanamid Company, priority 1977, dated 1978)
